Measured values from patent publication US4598081A, “1,3-dioxo-1H-benz(de)isoquinoline-2(3H) butyric acid, pharmacologically acceptable salts thereof and compositions containing the same for treatment of diabetes mellitus complications” (Nauchno-Issledovatelsky Institut Endokrinologii I Obmena …, priority 1985, dated 1986).
Entries after “also recorded” stand apart in the source; their conditions may differ. Structures can show the parent of a compound that is named as a salt.

How the values were obtained:
[1] = solubility of the acid and its salts; format: physicochemical
[2] = tested on: rats having alloxan diabetes; assay: histological examination and biomicroscopy in rats with prolonged alloxan diabetes; format: in vivo, Wistar rats; details: for biochemical and morphological indices: experimental animals
Protocol: The diabetes was caused by a single-time hypodermic injection of alloxan ("Chemapol") in a dose of 150 mg per kg of body weight.
Biomicroscopy of the conjunctiva was effected with the aid of a microscope fitted with a camera and a flash lamp.
For histological examination pieces of the kidney, liver and miocardium were fixed in 10% neutral formaline dehydrated in alcohol, and the paraffin sections were stained with hematoxylin and eosin, and also by the Van-Gizon method.

[3] = tested on: basal membrane of the muscle capillaries; assay: thickness of capillary basal membrane of limb muscles (electron microscope) in rats with alloxan diabetes; format: in vivo, Wistar rats; details: for biological activity compared with 1,3-dioxo-1H-benz(de)isoquinoline-2(3H)acetic acid: comparison with prior art compound; for average thickness of the capillary basal membrane of the limb muscles, after administration (M): rats, alloxan diabetes, end of the experiment; for thickness of the basal membrane of the muscle capillaries: after treatment
aldose reductase = assay: activity of aldose reductase in tissues of animals with alloxan diabetes; format: in vivo, Wistar rats; details: for inhibition of aldose reductase: tissues of the experimental animals; for Activity of aldose reductase: alloxan diabetes + compound
Protocol: (§1) The experiments were conducted on Wistar rats (males) having a weight of 140 to 160 g. The diabetes was caused by a single-time hypodermic injection of alloxan ("Chemapol") in a dose of 150 mg per kg of body weight.
(§2) The glood glucose was determined by applying a glucoseoxidase method, cholesterine by […], aldose reductase by the method of Hayman and Kinoshita, sorbitol by a sorbitol-dehydrogenase method.

White mice = assay: acute ("high") toxicity, peroral, white mice
Protocol: (§3) Mature animals both male and female, weighting 18 to 22 g (white mice), 180 to 220 g (rats), 11 to 15 kg (dogs) were used for said experiments.
(§4) The drug was introduced in the form of a starch suspension through a gastric tube.
(§5) Each dose being examined was tested on 5-6 animals.
(§6) LD50 determined by the Lichfield and Wilcoxon method, or the Van der Waerden method was used as an index of high toxicity. The animals were kept under observation for 5 days.

Rats [4] = assay: acute ("high") toxicity, peroral, rats
Protocol: as §3, §4, §5, §6

Dogs [5] = assay: acute ("high") toxicity, peroral, dogs; details: dosage 5500
Protocol: as §3, §4, §5, §6

[6] = tested on: white mice, rats, and dogs; assay: acute ("high") toxicity, symptoms and overall assessment in mice, rats and dogs
Protocol: as §3, §4, §5, §6

Dogs [7] = assay: chronic toxicity, 6 months peroral, dogs; details: in the dogs only
Protocol: (§7) The experiments were performed on rats, rabbits, and dogs.
(§8) In addition, the action of the proposed drug on the carbohydrate and uropoiesis functions of the liver was also examined.
(§9) The above indices were examined at the beginning of the experiment and then after 1, 2, 3, 4, 5, and 6 months.
(§10) At the end of the experiments there were carried out pathomorphological examinations of the lungs, heart, liver, kidneys, adrenal glands, spleen, lymph nodes, intestine, stomach, pancreas, and thyroid glands.
(§11) On completion of the experiment (six months) the experimental animals were killed: the dogs were killed with thiopental, the rabbits with aeroembolism, and the rats with diethyl ether. Thereafter, the lungs, heart, liver, kidneys, adrenal glands, spleen, lymph nodes, intestine, pancreas and thyroid gland of the killed animals were examined. The material thus obtained was fixed in formole. There were prepared paraffin sections which were then stained with hematoxylin and eosin.

Rats [8] = details: rat, in vivo
Protocol: as §7, §8, §9, §10, §11

rats, rabbits, and dogs = details: in vivo
Protocol: as §7, §8, §9, §10, §11

[9] = tested on: sorbitol and fructose in tissues; assay: sorbitol and fructose in tissues of animals with alloxan diabetes; format: in vivo, Wistar rats; details: for Fructose / Sorbitol: alloxan diabetes
Protocol: as §1, §2

[10] = blood indices (fructose, cholesterin, glucose) in rats with alloxan diabetes; format: in vivo, Wistar rats
Protocol: as §1, §2

SMILES: O=C(O)CCCN1C(=O)c2cccc3cccc(c23)C1=O [Sodium salt, sodium salt of 1,3-dioxo-1H-benz(de)isoquinoline-2(3H)butyric acid]
- solubility in benzole [1]: insoluble
- solubility in ethyl alcohol [1]: slightly soluble
- solubility in water [1]: readily soluble
- biochemical and morphological indices [2]: considerable improvements
- biological activity compared with 1,3-dioxo-1H-benz(de)isoquinoline-2(3H)acetic acid [3]: biologically more active than the prior art compound
- average thickness of the capillary basal membrane of the limb muscles, after administration (M) [3]: 102 nanometers
- inhibition of aldose reductase (aldose reductase): inhibiting properties with respect to aldose reductase; also recorded: inhibitors of aldose reductase

SMILES: O=C(O)CCCN1C(=O)c2cccc3cccc(c23)C1=O [Potassium salt, potassium salt of 1,3-dioxo-1H-benz(de)isoquinoline-2(3H)butyric acid]
- solubility in benzole [1]: insoluble
- solubility in ethyl alcohol [1]: soluble
- solubility in water [1]: readily soluble
- biochemical and morphological indices [2]: considerable improvements
- biological activity compared with 1,3-dioxo-1H-benz(de)isoquinoline-2(3H)acetic acid [3]: biologically more active than the prior art compound
- average thickness of the capillary basal membrane of the limb muscles, after administration (M) [3]: 98.6 nanometers
- inhibition of aldose reductase (aldose reductase): inhibiting properties with respect to aldose reductase; also recorded: inhibitors of aldose reductase

SMILES: O=C(O)CCCN1C(=O)c2cccc3cccc(c23)C1=O [1,3-dioxo-1H-benz(de)isoquinoline-2(3H)butyric acid]
- solubility in alcohol ([1]; alcohol, when heated): soluble
- solubility in dimethyl-formamide ([1]; dimethyl-formamide, when heated): soluble
- solubility in soda and alkali solutions ([1]; soda and alkali solutions): soluble in soda and alkali solutions
- solubility in water [1]: water-insoluble
- Percentage of animal death (died/in group) (White mice; dosage 3750): 3/5
- Percentage of animal death (died/in group) (White mice; dosage 4000): 2/5
- Percentage of animal death (died/in group) (White mice; dosage 4500): 4/5
- Percentage of animal death (died/in group) (White mice; dosage 4750): 5/5
- Percentage of animal death (died/in group) (White mice; dosage 5000): 3/5
- Percentage of animal death (died/in group) (White mice; dosage 5250): 5/5
- Percentage of animal death (died/in group) (Rats [4]; dosage 3000): 0/5
- Percentage of animal death (died/in group) (Rats [4]; dosage 3500): 2/5
- Percentage of animal death (died/in group) (Rats [4]; dosage 4000): 1/4
- Percentage of animal death (died/in group) (Rats [4]; dosage 4500): 3/5
- Percentage of animal death (died/in group) (Rats [4]; dosage 5000): 4/7
- Percentage of animal death (died/in group) (Rats [4]; dosage 5500): 4/5
- Percentage of animal death (died/in group) (Rats [4]; dosage 6000): 5/5
- Percentage of animal death (died/in group) (Dogs [5]): 3/5
- time until animals laid down on the side, comatose ([6]; acute lethal poisoning): 6 to 8 h
- time within which the animals died ([6]; as a rule, during the first 24-26 hours): 24 to 26 h
- overall acute toxicity assessment ([6]; peroral): substance with low-toxicity
- vessel permeability in the renal glomerulus (Dogs [7]): elevated vessel permeability in the renal glomerulus
- change in blood-formation function, composition of the peripheric blood and urogenous function of the liver (Rats [8]): did not lead to a change
- changes in the anthropological data (rats, rabbits, and dogs): no changes in the anthropological data
- irritating action on the liver and kidneys (rats, rabbits, and dogs): slight non-specific irritating action on the liver and kidneys
- lesions in the liver and kidneys (rats, rabbits, and dogs): slight lesions in the liver and kidneys
- lesions on dissection (rats, rabbits, and dogs): no lesions
- local lesion in the liver and kidneys (rats, rabbits, and dogs): slight local lesion in the liver and kidneys
- morphological lesions in organs (rats, rabbits, and dogs): did not cause morphological lesions in many organs
- kidney histology ([2]; 50 mg per kg per day, 30 days): renal glomerulus became more plethoric, the epithelium of the tubules had a more clearly defined boundary, and the protoplasm became less vacuolized and granular
- liver histology ([2]; 50 mg per kg per day, 30 days): structure of the lobes and radial location of trabeculas in the liver became clearly defined
- myocardium histology ([2]; 50 mg per kg per day, 30 days): Dystrophic lesion in the myocardium was less pronounced
- vascular pattern of the iris ([2]; 50 mg per kg per day, 30 days): Inflation and convolution of the vessels decreased, and the blood flow became homogeneous
- biochemical and morphological indices [2]: considerable improvements
- decrease of thickness of the basal membrane of the muscle capillaries ([3]; 50 mg per kg per day, 30 days): almost one and a half times
- microangiopathy ([3]; 50 mg per kg per day, 30 days): Microangiopathy became less pronounced
- biological activity compared with 1,3-dioxo-1H-benz(de)isoquinoline-2(3H)acetic acid [3]: biologically more active than the prior art compound
- thickness of the basal membrane of the muscle capillaries ([3]; rats having alloxan diabetes for 12 months): 100-120 nm
- thickness of the basal membrane of the muscle capillaries ([3]; rats having six months alloxan diabetes): 65 nm
- average thickness of the capillary basal membrane of the limb muscles, after administration (M) [3]: 98.3 nanometers
- Activity of aldose reductase (aldose reductase; Aorta): 7.4 ± 0.8 μmol substruct. per mg of protein
- Activity of aldose reductase (aldose reductase; Cryst. lens): 3.4 ± 0.30 μmol substruct. per mg of protein
- Activity of aldose reductase (aldose reductase; Nerve): 25.5 ± 2.1 μmol substruct. per mg of protein
- inhibition of aldose reductase (aldose reductase): inhibiting properties with respect to aldose reductase; also recorded: inhibitors of aldose reductase
- Fructose ([9]; Cryst. lens): 2.85 ± 0.56 μmol per g of tissue
- Sorbitol ([9]; Cryst. lens): 7.18 ± 0.65 μmol per g of tissue
- Fructose ([9]; Nerve): 3.25 ± 0.73 μmol per g of tissue
- Sorbitol ([9]; Nerve): 9.8 ± 0.94 μmol per g of tissue
- quantity of sorbitol and fructose in the examined tissues ([9]; Table 5): has decreased
- change of the level of glucose (blood) [10]: did not change
- cholesterin (blood) ([10]; p<0.005): 100±7.1 mg %
- fructose (blood) ([10]; p<0.02): 2.26±0.16 mg %
- level of glucose (blood) ([10]; p<0.5): 340.1±27.8 mg %

SMILES: O=C(O)CN1C(=O)c2cccc3cccc(c23)C1=O [1,3-dioxo-1H-benz(de)isoquinoline-2(3H)acetic acid, reference compound]
- average thickness of the capillary basal membrane of the limb muscles, after administration (M) [3]: 112 nanometers
